Test results from patent US10561723B2, “Treatment and prevention of anal conditions” (priority 2015, dated 2020).
Entries after “also recorded” stand apart in the source; their conditions may differ.

Key:
[1] = system: anal dysplasia; test: Anal pap smear cytology, case report Example 3; type: in vivo, human; settings: Ex.3, imiquimod + HPV-9 vaccine
Description: (§1) Case Report Summary: The patient is a HIV positive gay with chronic HIV infection who presents with recurrent high grade squamous intraepithelial lesion (HSIL) post multiple ablative treatments. The patient received treatment for their HIV disease with a combination of anti-retroviral medicatons (abacavir, etravirine, prezista and ritonavir which was later modified to dolutegravir, etravirine and prezista and ritonavir). Over the past two years the CD4 count has been in the range of 250-350 and there has been low level HIV viremia (40-400 copies range per ml of plasma) due to intermittent adherence. The patient has other co-morbid conditions including hepatitis C, hypertension, hyperlipidemia, osteoporosis, and high risk sexual activity.
(§2) May 29, 2015 Discussed immunotherapy for recurrent HSIL after failing ablative therapies described above. Patient received HPV-9 vaccine intramuscular in the deltoid. This is the start of the immunotherapy protocol. Patient starts the intra-anal application of 5% imiquimod cream three times per week.
(§3) Jan. 15, 2016 4th perianal HPV-9 vaccination given. Discontinue 5% intra-anal imiquimod cream and begin 5% 5-fluorouracil cream intra-anally three times a week for 20 weeks.

[2] = Side effects, case report Example 3; type: in vivo, human; settings: Ex.3; for most notable side effects of the immunotherapy protocol: 5% imiquimod cream and 5% 5-fluorouracil cream intra-anally, resolved on brief cessation or reduced frequency
Description: Aug. 7, 2015 HRA done and biopsies taken. […] Pt told to wait until irritation has abated before continuing the imiquimod cream treatments. First perianal HPV-9 vaccination given.
The above case report represents a case of recurrent anal HSIL status post multiple ablative procedures. The patient has HIV infection and thus is moderately immunosuppressed. In spite of the immunosuppression, the patient was able to clear not only HSIL (AIN 2 and AIN 3) but also was able to clear LSIL (AIN 1). The presence of a normal anal pap smear result on Jun. […] 20, 2016. […] It is presumed that the use of the 5-fluorouracil cream treated nests of dysplastic cells that if not treated would likely lead to recurrent LSIL or HSIL. Thus, the immunotherapy protocol may be useful for patients in a salvage situation who have failed multiple ablative procedures with recurrent HSIL in the setting of immunosuppression due to HIV infection. […] This might be due to the immunosuppression secondary to chronic HIV infection.

[3] = system: anal intraepithelial neoplasia (AIN); test: HRA with biopsies, case report Example 3; type: in vivo, human; settings: Ex.3; for anal dysplasia, overall outcome of immunotherapy protocol: 5% imiquimod cream with perianal HPV-9 immunizations followed by 4-5 months of 2-3 times weekly intra-anal 5% 5-fluorouracil cream
Description: as §1, §2, §3

[4] = system: anal intraepithelial neoplasia (AIN); test: High resolution anoscopy (HRA) with biopsies, case report Example 1; type: in vivo, human
Method: (§4) Case Report Summary: A HIV negative patient with multifocal AIN 2 and AIN 3 in the anal transitional zone was enrolled. The patient was treated with intra-anal imiquimod followed by an intramuscular dose of HPV4 followed by four perianal HPV4 immunizations, each separated by 3-4 weeks. The patient was screened for high risk (HR) HPV DNA on a weekly basis and had multiple biopsies to identify possible dysplasia.
(§5) Detailed Data and Results: A HIV negative person presented for routine health care. […] Patient was referred for HRA. […] 5, 2014. Biopsies indicated the following: distal AIN 1 at three o'clock; AIN 1 at 4 o'clock; AIN 2 at 7 o'clock; AIN 2 at 10 o'clock; and AIN 2 at 12 o'clock. FIGS. 1B and 1C are posterior and anterior views, respectively, showing circumferential staining of the anal canal. Patient received the first immunization with qHPV vaccine IM in the deltoid on Nov. 13, 2014. On Dec. 1, 2014, the patient received the first perianal qHPV vaccine. They started to use 5% imiquimod on Dec. 1, 2014 with one packet applied intra-anally three times weekly.

[5] = system: anal dysplasia; test: Anal pap smear cytology, case report Example 1; type: in vivo, human
Method: as §4, §5

[6] = system: HPV DNA / AIN; settings: cited from earlier work
[7] = Tolerability, case report Example 1; type: in vivo, human; settings: Ex.1; intra-anal 5% imiquimod 3x/wk; resolved, restarted after several days to one week
Description: On Dec. 29, 2014 the patient was again examined and had ASCUS anal pap smear. The anal pap was negative for high risk HPV types. […] The erythema and discomfort resolved and imiquimod was restarted after a period of several days to one week. On Jan. 27, 2015 the anal pap smear was normal and negative for high risk HPV DNA. They received the third perianal qHPV vaccine.

[8] = system: high risk (HR) HPV DNA; test: Anal pap high risk HPV DNA screen, case report Example 1; type: in vivo, human
Method: as §4, §5

[9] = system: HPV other high risk types; test: Anal HPV typing/assay, case report Example 3; type: in vivo, human
Description: as §1, §2, §3

[10] = system: hepatitis C, genotype 1; test: Hepatitis C treatment of the Example 3 patient; type: in vivo, human; settings: Ex.3 patient; 12 weeks of treatment; 12 weeks post completion of therapy
[11] = then intra-anal 5% 5-fluorouracil cream from Jan. 15, 2016, Jun. 20, 2016
[12] = imiquimod + HPV-9 vaccine, then intra-anal 5% 5-fluorouracil cream from Jan. 15, 2016, Apr. 21, 2016
[13] = imiquimod + HPV-9 vaccine, then intra-anal 5% 5-fluorouracil cream from Jan. 15, 2016, Jun. 20, 2016
[14] = Ex.1 HIV negative male with AIN 2/3, intra-anal 5% imiquimod 3x/wk + qHPV (HPV4) vaccine (IM, then 4 perianal)
[15] = Ex.1, imiquimod + qHPV vaccine, Dec. 11, 2014
[16] = Ex.1, imiquimod + qHPV vaccine, Dec. 29, 2014
[17] = Ex.1, imiquimod + qHPV vaccine, Feb. 10, 2015
[18] = Ex.1, imiquimod + qHPV vaccine, Feb. 25, 2015
[19] = Ex.1, imiquimod + qHPV vaccine, Jan. 27, 2015
[20] = Ex.1, imiquimod + qHPV vaccine, Pathology Report I
[21] = Ex.1, imiquimod + qHPV vaccine, Pathology Report II (Feb. 25, 2015)

O=c1[nH]cc(F)c(=O)[nH]1 [5-fluorouracil]
anal pap cytology [1, 11]: negative for intraepithelial lesion and malignancy | most notable side effects of the immunotherapy protocol [2]: anal and perianal irritation | anal dysplasia, overall outcome of immunotherapy protocol [3]: clearance of anal dysplasia (AIN 1, AIN 2 and AIN 3) | HRA biopsies histology [3, 12]: 3 o'clock—AIN 1; 5 o'clock—AIN 1; 6 o'clock—AIN 1; 9 o'clock—AIN 1; 10 o'clock—benign; 12 o'clock—benign | HRA biopsies histology [3, 13]: 3 o'clock—benign; 9 o'clock—benign anal mucosa; 10 o'clock—benign anal mucosa; 12 o'clock—benign anal mucosa

CC(C)Cn1cnc2c(N)nc3ccccc3c21 [imiquimod, 3-(2-Methylpropyl)-3,5,8-triazatricyclo[7.4.0.0^2,6]trideca-1(9),2(6),4,7,10,12-hexaen-7-amine]
anal dysplasia, overall outcome [4, 14]: resolution of anal dysplasia | HRA biopsies histology [4, 15]: AIN 1 at 4 o'clock; AIN 2 at 7 o'clock and AIN 3 at 12 o'clock | HRA biopsies histology [4, 16]: AIN 2 at 7 o'clock and focal AIN 1 at 12 o'clock | HRA biopsies histology [4, 17]: normal histology at 4, AIN 1 at 10 and small focal AIN 2 at 12 o'clock | anoscopist's observation of anal canal epithelium [4, 18]: remodeling of the anal canal epithelium, replacing thickened dysplastic epithelium with thin, translucent epithelium, which is normal | biopsies at 2, 6, 10 and 12 o'clock [4, 19]: all normal without evidence of dysplasia | biopsy diagnosis, anal canal 4 o'clock (transition zone) [4, 20]: no evidence of dysplasia or malignancy | biopsy diagnosis, anal canal 10 o'clock (transition zone) [4, 20]: AIN 1 | biopsy diagnosis, anal canal 12 o'clock (transition zone) [4, 20]: AIN 2 | biopsy diagnosis, anal canal 5 o'clock [4, 21]: no evidence of dysplasia or malignancy | biopsy diagnosis, anal canal 7 o'clock [4, 21]: no evidence of dysplasia or malignancy | biopsy diagnosis, anal canal 10 o'clock [4, 21]: no evidence of dysplasia or malignancy | biopsy diagnosis, anal canal 12 o'clock [4, 21]: no evidence of dysplasia or malignancy | anal Pap smear, overall outcome [5, 14]: normalization of the anal Pap smear from ASCUS | anal pap smear cytology [5, 16]: ASCUS | anal pap cytology ([5]; Ex.1, imiquimod + qHPV vaccine, Feb. 10, 2015 (Pathology Report I concurrent pap)): normal; also recorded: negative for intraepithelial lesion and malignancy | anal pap smear cytology ([5]; Ex.1, imiquimod + qHPV vaccine, Feb. 25, 2015 (Pathology Report II concurrent pap)): normal; also recorded: negative for intraepithelial lesion and malignancy | anal pap smear cytology [5, 19]: normal | developed recurrent AIN ([6]; after intra-anal 5% imiquimod cream, mean follow up approximately 30 months, often HPV types differing from start): 5 patient | HPV DNA viral loads ([6]; intra-anal 5% imiquimod cream three times weekly for 16 weeks, 19 HIV positive men with AIN): decreased | local adverse effect leading to interruptions of imiquimod cream [7]: increased perianal erythema | anal pap cytology [1, 11]: negative for intraepithelial lesion and malignancy | anal pap cytology ([1]; Oct. 28, 2015): atypical cells of undetermined significance (ASCUS) | anal pap cytology ([1]; Sep. 30, 2015): LSIL | HR HPV DNA, overall outcome [8, 14]: loss of HR HPV DNA including HPV16 | anal pap high risk HPV DNA [8, 15]: negative | anal pap high risk HPV types [8, 16]: negative | anal pap high risk HPV DNA [8, 17]: negative | HPV DNA [8, 18]: negative | anal pap high risk HPV DNA [8, 19]: negative | HPV typing ([9]; Ex.3 HIV positive male, recurrent HSIL after ablative treatments, intra-anal 5% imiquimod 3x/wk + HPV-9 vaccine IM (May 29, 2015), Aug. 7, 2015): positive for other high risk types | HPV assay ([9]; Ex.3, imiquimod + HPV-9 vaccine (IM, 1 perianal), Sep. 30, 2015): continued presence of other HPV high risk types | most notable side effects of the immunotherapy protocol [2]: anal and perianal irritation | patient complaints due to imiquimod cream treatments ([2]; intra-anal 5% imiquimod cream 3x/wk, Aug. 7, 2015): anal irritation and spotting of blood per anus | anal dysplasia, overall outcome of immunotherapy protocol [3]: clearance of anal dysplasia (AIN 1, AIN 2 and AIN 3) | HRA biopsies histology ([3]; imiquimod + HPV-9 vaccine IM, Aug. 7, 2015): 3 o'clock—AIN 2; 4 o'clock—AIN 1; 9 o'clock—AIN 1; 10 o'clock distal—AIN 1; 12 o'clock AIN 2 | HRA biopsies histology [3, 12]: 3 o'clock—AIN 1; 5 o'clock—AIN 1; 6 o'clock—AIN 1; 9 o'clock—AIN 1; 10 o'clock—benign; 12 o'clock—benign | HRA biopsies histology [3, 13]: 3 o'clock—benign; 9 o'clock—benign anal mucosa; 10 o'clock—benign anal mucosa; 12 o'clock—benign anal mucosa | HRA biopsies histology ([3]; imiquimod + HPV-9 vaccine, Dec. 9, 2015): 3 o'clock AIN—1; 6 o'clock—AIN 1; 9 o'clock—benign | HRA biopsies histology ([3]; imiquimod + HPV-9 vaccine, Oct. 28, 2015): 1 o'clock—AIN 1; 4 o'clock—benign; 9 o'clock—AIN 1; 12 o'clock—AIN 1 | HRA biopsies histology ([3]; imiquimod + HPV-9 vaccine, Sep. 30, 2015): 3 o'clock—AIN 1; 4 o'clock—AIN 1; 9 o'clock—AIN 1; 10 o'clock—AIN 1; 12 o'clock—benign

CCN(CC)CC(=O)Nc1c(C)cccc1C [lidocaine]
burning at the site of HPV vaccination ([2]; local infusion of 1% lidocaine prior to perianal HPV-9 vaccinations): much less burning

sofosbuvir/ledipasvir
virologic response [10]: sustained virologic response
